Results as given in publication PMC7550284, “The functional cooperation of 5-HT1A and mGlu4R in HEK-293 cell line” (Pharmacological Reports, 2020).
Blank lines part the entries; values can stand above or below the molecule they belong to.

Columns and labels:
5-HT1A receptor [1] = target: T1, 5-HT1A receptor (Homo sapiens, UniProt P08908); assay: Forskolin-induced cAMP accumulation in T-REx 293 cells expressing both 5-HT1A-HALO and mGlu4R-SNAP, 5-HT1A agonist response; format: cell-based; settings: +Tet
T1 construct: expressed in transfected cells
T1 sequence (P08908 1-422): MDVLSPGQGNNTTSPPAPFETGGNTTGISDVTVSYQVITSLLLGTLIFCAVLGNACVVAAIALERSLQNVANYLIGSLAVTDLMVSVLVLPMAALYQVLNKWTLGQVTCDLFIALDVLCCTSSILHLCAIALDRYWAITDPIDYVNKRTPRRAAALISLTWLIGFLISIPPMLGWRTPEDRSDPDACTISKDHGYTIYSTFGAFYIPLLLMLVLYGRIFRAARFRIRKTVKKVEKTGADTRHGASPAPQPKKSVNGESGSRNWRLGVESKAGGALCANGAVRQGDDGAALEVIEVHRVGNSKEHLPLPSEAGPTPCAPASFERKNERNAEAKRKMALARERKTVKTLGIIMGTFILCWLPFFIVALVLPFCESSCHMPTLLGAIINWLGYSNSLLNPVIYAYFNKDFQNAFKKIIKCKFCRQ
Method: (§1) The cell line was maintained in DMEM medium supplemented with 10% FBS (tetracycline free), 2 mM Glutamax I (Lonza,), 100 µg/mL Zeocin and 10 µg/mL blasticidin (Invitrogen). T-REx 293 cells were treated with a mixture of plasmids (0.1 µg pTet-SNAP-GRM4 and 0.9 µg pOG44) and GeneJuice transfection reagent according to the manufacturer’s instructions (Novagen). After 48 h, selection for the stably integrated plasmid with 100 µg/mL hygromycin B (Invitrogen) began. In parallel experiments, the HALO-5-HT1A plasmid was introduced into T-REx 293 cells or cells with the inducible expression of SNAP-GRM4 to generate a cell line that expressed both receptors. In the double expression system (as well as in other experiments), 5-HT1A was stably expressed, and mGlu4R expression was induced by tetracycline treatment (+ Tet; 0.75 µg/mL) (Fig. S3). One additional cell line was generated by cloning the 5-HT1A insert (BamHI/XhoI) into the pSNAPf vector ([…]).
(§2) Each experiment was performed three times (n = 3), and each data point was in triplicate. The curves for the data shown were fitted to a three-parameter logistic equation, allowing for the determination of IC50 values and Emax. For comparison of IC50 between the curves, t test was applied. The ONE way ANOVA and Tukey’s post hoc test were used for in vitro receptor interaction assays statistics.

mGlu4R [2] = assay: Forskolin-induced cAMP accumulation in T-REx 293 cells expressing both 5-HT1A-HALO and mGlu4R-SNAP, L-glutamate response; format: cell-based, human; settings: without tetracycline induction (−Tet); curve parameters impossible to determine
Method: as §1, §2

mGlu4R [3] = target: T2, mGlu4R (Homo sapiens, UniProt Q14833); assay: as above; format: cell-based; settings: SSZ 100 μM; +Tet
T2 construct: expressed in transfected cells
T2 sequence (Q14833 33-912): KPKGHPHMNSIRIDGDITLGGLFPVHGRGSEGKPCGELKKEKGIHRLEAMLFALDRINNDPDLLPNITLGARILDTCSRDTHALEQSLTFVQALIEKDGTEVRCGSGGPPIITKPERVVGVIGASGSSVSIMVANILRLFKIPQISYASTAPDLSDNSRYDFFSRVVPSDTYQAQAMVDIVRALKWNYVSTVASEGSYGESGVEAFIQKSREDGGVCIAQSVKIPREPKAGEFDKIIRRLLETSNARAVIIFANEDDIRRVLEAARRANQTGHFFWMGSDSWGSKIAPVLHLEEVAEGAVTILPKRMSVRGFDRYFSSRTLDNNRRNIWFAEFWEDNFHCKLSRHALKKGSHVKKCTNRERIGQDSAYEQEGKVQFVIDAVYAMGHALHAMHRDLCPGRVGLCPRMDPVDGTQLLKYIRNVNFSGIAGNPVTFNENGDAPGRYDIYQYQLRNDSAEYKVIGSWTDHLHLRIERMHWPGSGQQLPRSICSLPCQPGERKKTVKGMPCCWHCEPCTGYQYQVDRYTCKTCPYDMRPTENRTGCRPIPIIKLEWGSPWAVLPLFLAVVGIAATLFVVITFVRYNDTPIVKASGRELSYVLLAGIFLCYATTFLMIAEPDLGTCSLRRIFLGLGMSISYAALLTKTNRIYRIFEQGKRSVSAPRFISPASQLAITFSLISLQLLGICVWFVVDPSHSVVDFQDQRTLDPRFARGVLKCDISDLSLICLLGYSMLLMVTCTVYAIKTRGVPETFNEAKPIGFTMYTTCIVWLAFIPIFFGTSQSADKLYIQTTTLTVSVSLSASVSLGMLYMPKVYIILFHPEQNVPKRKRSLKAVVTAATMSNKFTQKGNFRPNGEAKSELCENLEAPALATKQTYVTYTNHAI
Method: as §1, §2

[4] = target: T3, hmGlu4 receptor homodimer (Homo sapiens, UniProt Q14833); assay: HTRF-FRET receptor interaction assay, mGlu4-SNAP homodimers (Snap-Tb/Snap-Green); format: cell-based; settings: in presence of L-glutamate; VU0155041 10 μM, LY341495 100 µM
T3 construct: expressed in transfected cells
T3 sequence (Q14833 33-912): as above

5-HT1A receptor [5] = target: T1, 5-HT1A receptor; assay: Forskolin-induced cAMP accumulation (HTRF) in T-REx-293-h5-HT1A-SNAP cells; format: cell-based; settings: cAMP assay, Fig. 1b
Method: as §1, §2

SMILES: CCCN(CCC)[C@@H]1CCc2cccc(O)c2C1 [(R)-(+)-8-OH DPAT, (R)-(+)-8-hydroxy-DPAT]
- Effect on forskolin-stimulated cAMP accumulation after induction of mGlu4 receptor expression (5-HT1A receptor [1]): abolished

SMILES: N[C@@H](CCC(=O)O)C(=O)O [L-glutamate]
- Effect on forskolin-induced cAMP accumulation without induction of mGlu4 receptor expression (mGlu4R [2]): not effective

- Effect of sulfasalazine treatment on 5-HT1A activity in presence of mGlu4 receptors (5-HT1A receptor [1]; SSZ 100 μM, versus cells without SSZ): significantly enhanced
SMILES: O=C(O)c1cc(/N=N/c2ccc(S(=O)(=O)Nc3ccccn3)cc2)ccc1O [Sulfasalazine, sulfasalazine]
- Effect of sulfasalazine treatment on the dose–response curve of glutamate (mGlu4R [3]): shifted the dose–response curve of glutamate to the left

SMILES: O=C(Nc1cc(Cl)cc(Cl)c1)[C@H]1CCCC[C@H]1C(=O)O [VU0155041]
- Effect on FRET signal / interaction between mGluR4 monomers [4]: enhanced interaction

- Effect of antagonist on the agonist (R)-(+)-8-OH DPAT Emax (5-HT1A receptor [5]): totally abolished
SMILES: COc1ccccc1N1CCN(CC(C(=O)NC(C)(C)C)c2ccccc2)CC1 (stereo not drawn) [WAY100135]
